The source of these data is patent publication US20200407398A1, “Short Proline-Rich Lipopeptide Potentiates Minocycline and Rifampicin Against Multidrug-and Extensively Drug-Resistant Pseudomonas Aeruginosa” (priority 2018, published 2020).

Peptide text beside a SMILES is read from it. * marks the point of attachment. Lauroyl = CCCCCCCCCCCC(=O)* Bounds are passed on as bounds.

One may read the MIC as the least concentration at which growth counts as inhibited.

What all share (assay type): cell-based
For one test, the system named is E. coli ATCC 25922. In a few lines:
(§1)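 MICs were determined by CLSI broth microdilution in Mueller-Hinton broth, using 2-fold serial dilutions and an inoculum of 5×10^5 CFU/mL. Plates were incubated 18 hours at 37° C. The MIC was the lowest concentration preventing visible turbidity, confirmed by absorbance at 590 nm.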

For test [1], the system named is methicillin-resistant S. epidermidis CAN-ICU 61589 (ceftazidime-resistant). To be noted: methicillin-resistant CAN-ICU 61589 (ceftazidime-resistant). An outline of the steps:
as §1

Test [2] deals with P. aeruginosa CANWARD-2011 96846 (gentamicin-, tobramycin-resistant). An outline of the steps:
as §1

Test [3] deals with methicillin-susceptible Staphylococcus epidermidis CANWARD-2008 81388. The following applies: methicillin-susceptible CANWARD-2008 81388. An outline of the steps: as §1
Another test has as its system S. aureus ATCC 29213. An outline of the steps: as §1
Test [4] relates to E. coli CAN-ICU 63074 (amikacin-intermediate resistant). An outline of the steps:
as §1

A further test deals with E. faecalis ATCC 29212. In a few lines: as §1
A further test concerns K. pneumoniae ATCC 13883. An outline of the steps:
as §1

The test system of test [5] is P. aeruginosa CAN-ICU 62308 (gentamicin-resistant). An outline of the steps: as §1
For test [6], the system named is methicillin-resistant S. aureus ATCC 33592. An outline of the steps: as §1
For test [7], the system named is E. coli CAN-ICU 61714 (gentamicin-resistant). In a few lines: as §1
The subject of test [8] is P. aeruginosa wild-type PAO1. In a few lines:
as §1

For a further test, the system named is E. faecium ATCC 27270. In a few lines:
as §1

In test [9] the test system is A. baumannii CAN-ICU 63169. An outline of the steps:
as §1

Another test deals with P. aeruginosa ATCC 27853. An outline of the steps: as §1
Test [10] deals with E. coli CANWARD-2011 97615 (gentamicin-, tobramycin-, ciprofloxacin-resistant) aac(3′)iia. An outline of the steps:
as §1

Test [11] deals with S. maltophilia CAN-ICU 62584. In a few lines:
as §1

As for `CCCCCCCCCCCC(=O)N1CCC[C@H]1C(=O)N[C@@H](CCCNC(=N)N)C(=O)N1CCC[C@H]1C(=O)N[C@@H](CCCNC(=N)N)C(=O)N1CCC[C@H]1C(=O)N[C@@H](CCCNC(=N)N)C(=O)N1CCC[C@H]1C(N)=O` [Compound C12-PRP, CH3(CH2)10CO-PRPRPRP-NH2] (Lauroyl-PRPRPRP-NH2), the minimal inhibitory concentration (MIC) in the test with E. coli ATCC 25922 was more than 128 µg/mL; in test [1], 128 µg/mL; in [2], more than 128 µg/mL; in test [3], 32 µg/mL; with S. aureus ATCC 29213 it was 128 µg/mL; in test [4], more than 128 µg/mL. Moreover, the MIC with E. faecalis ATCC 29212 was more than 128 µg/mL; with K. pneumoniae ATCC 13883, more than 128 µg/mL; in test [5] it was more than 128 µg/mL; in test [6] it was more than 128 µg/mL; in test [7] it was more than 128 µg/mL; in test [8], 128 µg/mL. Besides, the MIC in the test on E. faecium ATCC 27270 was 128 µg/mL; in [9], more than 128 µg/mL; in the test on P. aeruginosa ATCC 27853 it was more than 128 µg/mL; in test [10] it was more than 128 µg/mL; in [11], more than 128 µg/mL.
